From US12616203B2, “Use of 3-isoxazolidinones compounds as selective herbicides” (FMC Corporation, priority 2014, dated 2026)

Assays:
Annual bluegrass = assay: Ex34 PRE 2,4-DC + napropamide, % control, Colby; type: in vivo, Poa annua; conditions: 28 DAT
Text: Thereafter flats were watered and fertilized routinely.

weeds; Wheat and canola = assay: Ex27 PRE greenhouse; type: in vivo; conditions: weed and rate in the words
Text: The weeds tested in this study were Italian ryegrass (Lolium perenne. multiflorum, LOLMU), wild mustard (Sinapis arvensis, SINAR), annual bluegrass (Poa annua POAAN), wild oat (Avena fatua, AVEFA), blackgrass (Alopecurus myosuroides, ALOMY), common lambsquarters (Chenopodium album […] (Phalaris minor, PHAMI), common chickweed (Stellaria media, STEME), corn poppy (Papaver rhoeas PAPRH). The crops tested were Wheat and canola. […] Treatments were applied before the emergence of Italian ryegrass, wild oat, blackgrass, littleseed canarygrass, common chickweed, common lambsquarters, corn poppy, wild mustard, annual bluegrass, canola, and wheat. […] Flats were watered and fertilized routinely after treatment application. […] Wheat and corn poppy were rated at 14 and 21 DAT only.

What does the source list for CC1(C)CON(Cc2ccc(Cl)cc2Cl)C1=O [2,4-DC, 2-(2,4-dichlorophenyl)methyl-4,4-dimethyl-3-isoxazolidinone]?
X (Annual bluegrass; 2,4-DC alone 31 g ai/ha): 0%; X (Annual bluegrass; 2,4-DC alone 63 g ai/ha): 2%; X (Annual bluegrass; 2,4-DC alone 125 g ai/ha): 12%; X (Annual bluegrass; 2,4-DC alone 250 g ai/ha): 40%; X (Annual bluegrass; 2,4-DC alone 375 g ai/ha): 63%; weed control in words (weeds; Wheat and canola): provided good control of blackgrass at 375 g; controlled Italian ryegrass at ≥125 g and common chickweed at all rates
